Series [1] is described as follows: Long-term toxicology: urine creatinine. In kind it is in vivo, Sprague-Dawley rats. To be noted: 3.3 mg/kg subcutaneous, single dose. How it is done:
Each animal was administered a single bolus dose at the beginning of the 30-day study period. […] Urine samples were centrifuged at 17,000×g for 5 mins and stored in −80° C. freezer until creatinine analysis.
Urine creatinine was analyzed using the QuantiChrom™ Creatinine Assay Kit according to the manufacturer's instructions (BioAssay Systems, Hayward, Calif.). Creatinine concentration of the sample was calculated as (ODSAMPLE 5-ODSAMPLE 1) (ODSTD 5-ODSTD 1)×[STD] (mg/dL). ODSAMPLE5 ODSAMPLE1, ODSTD5, and ODSTD1 are OD510nm values of sample and standard at 5 min and 1 min, respectively.

The subject of a further series is MCF7. The series is described as follows: In vitro cell toxicity (DMEM, resazurin blue, 72 hrs). In kind it is cell-based, human. As to the method: (§1) Cell lines were seeded into 96-well plates (5000 cells/well) in DMEM medium supplemented with 5% FBS and 1% penicillin/streptomycin.
In another series the test system is MDA-MB-231. The description is as above. In kind it is cell-based, human. How it is done: as §1
Details of series [2]: species or system Sprague-Dawley rats. To be noted: rat, in vivo, sc. As to the method: Sprague-Dawley rats (female, 200-250 g) were cannulated in the left jugular vein under isoflurane and allowed to recover overnight. […] Subcutaneous injections were given in the uppermost right mammary fatpad of the animal. Whole blood was withdrawn (100 μl) from the cannula at 0, 5 min, 0.5, 1, 2, 4, 6, 12, 24, 48 and 96 hrs after dosing and placed into 2-ml centrifuge tubes pretreated with heparin. The cannula was washed before and after withdrawal with saline and then heparin locked. The whole blood was centrifuged at 17,000×g for 5 mins, and the plasma was frozen at −80° C. until analysis. Animals were euthanized […]. The right ipsilateral axilla nodes (treated side), left contralateral axilla nodes (control side), and major organs (liver, kidneys, heart, spleen, lungs, brain, muscle, bladder) were excised; washed with 0.9% saline; and stored at −80° C. until analysis. […] Typically, 50 mg of tissue sample was digested using 1.5 ml of 6.7% nitric acid for 2 hours at 80° C. After digestion, samples were homogenized (Tissue Tearor; BioSpec Products Inc., Bartlesville, Okla.) and centrifuged. The supernatant and plasma samples were analyzed by AAS as described in the Synthesis section.
In vitro release samples (n=3) and plasma samples (n=5) were diluted 200-fold and 10-fold, respectively, with 0.1% nitric acid for analysis. […]

The next series deals with MDA-1986. Kind of series: MTS cell viability assay, 72 hours. In kind it is cell-based, human. To be noted: 10 nM to 100 micromolar. How it is done: (§2) To evaluate the anticancer, specifically antiproliferative, effects of HA-cisplatin compared to standard CDDP in vitro in two human head and neck squamous cell carcinoma cell lines (JMAR and MDA-1986) a standard MTS assay was performed as per the manufacturer's specified protocol.
(§3) Once 75% confluent, cells were trypsinized (0.25% trypsin), counted and plated in 96-well microtiter plates (Costar, Cambridge, Mass., USA) (1×10^3 cells/well) in 100 μL of growth media. After an overnight attachment period, cells were exposed to varying concentration of […] for 3 days. All studies were performed in triplicate and repeated at least three times independently. After the 3-d treatment period, the number of viable cells was determined using a colorimetric Cell Proliferation assay (CellTiter96 Aqueous Nonradioactive Cell Proliferation assay; Promega, Madison Wis., USA), which measures the bioreduction of the MTS (3-[4,5-dimethylthiazol-2yl]-5-[3-carboxymethoxyphenyl]-2-[4-sulfophenyl]-2H tetrazolium) by dehydrogenase enzymes of metabolically active cells into soluble formazon product, in the presence of the electron coupling reagent PMS (phenazine methosulfate). To perform the assay, 20 μL of combined MTS/PMS solution containing 2 mg/mL MTS and 150 μM PMS in buffer (0.2 g/L KCl, 8.0 g/L NaCl, 0.2 g/L KH2PO4, 1.15 g/L, […] CaCl2-2H2O, […], MgCl2.6H2O, pH 7.35) was added to each well and then after 3 hr of incubation at 37° C. in a humidified 5% CO2 atmosphere, absorbance was measured at 490 nm in microplate reader. Triplicate wells with predetermined cell numbers were subjected to the above assay in parallel with the test samples to normalize the absorbance readings; this also provided internal confirmation that the assay was linear over the range of absorbance and cell numbers measured. Data was plotted as a function of % viability from controls (cell viability) vs. drug concentration (x-axis).
In general terms: Tetrazolium dyes change colour on reduction, which living cells bring about.

For a further series, the system named is JMAR. The series is described as follows: MTS cell viability assay, 72 hours. In kind it is cell-based, human. To be noted: 10 nM to 100 micromolar. As to the method:
as §2, §3

A further series relates to MDA-1986 cells. Kind of series: In vivo efficacy of HA-cisplatin, orthotopic HNSCC model. Further details: species or system Nu/Nu female athymic nude mice. As to conditions: subcutaneous, weekly dose of 3.3 mg/kg for 3 weeks; 5 mice. An excerpt: The in vivo efficacy of HA-cisplatin was studied. All treatment began once animal HNSCC tumors reached 100 mm3 volume. Treatment commenced for 3 weeks. All animals were given 5×10^5 MDA-1986 cells in the buccal mucosa of the left cheek (which is a novel orthotopic HNSCC model I developed this year) and tumors develop in 2-3 weeks.

Read-outs that look alike come from different tables or passages of the source.

With [PtCl(H2O)(NH3)2]OOCO-HA [HA-cisplatin], the urine creatinine levels entry in series [1] is listed as “remained near pre-dosing levels”. The IC50 worked out at 7 µg/mL with MCF7 (MCF-7, cisplatin basis); 23 µM in the series with MCF7 (MCF-7, read-out: IC50); 7 µg/mL with MDA-MB-231 (cisplatin basis); 23 µM with MDA-MB-231 (read-out: IC50). For the same substance, the “delay before plasma platinum peaked and plateaued-off” value in series [2] worked out at 2 h. The “IC50 level compared with CDDP” value in the series on MDA-1986 is listed as “no significant difference”; with MDA-1986 (listed as HA-Cisplatin), “very similar”; in the series on JMAR it was “no significant difference”; with JMAR (listed as HA-Cisplatin) it was “very similar”. Moreover, the response to therapy in the series on MDA-1986 cells is 2 animals had a complete response to therapy and the third (HA-cis 1) had a partial response to therapy. Moreover, the tumor growth delay entry in the series on MDA-1986 cells is on record as “delayed tumor growth in all 5 animals”.

Broadly, the IC50 is the concentration needed to halve the response being measured.

(Values after patent publication US8088412B2, “Intralymphatic chemotherapy drug carriers” (priority 2008, dated 2012).)
